Measured values from ChEMBL document CHEMBL1150565, “Cheilanthane sesterterpenes, protein kinase inhibitors, from a marine sponge of the genus Ircinia” (J Nat Prod, 2001).

Assays:
[1] = target: Ribosomal protein S6 kinase alpha-5 (Homo sapiens, UniProt O75582); test: Inhibition of MSK1 assessed as [33P] incorporation by scintillation proximity assay
[2] = target: MAP kinase-activated protein kinase 2 (Homo sapiens, UniProt P49137); test: Inhibition of MAPKAPK2 assessed as [33P] incorporation by scintillation proximity assay
Sequence of MAP kinase-activated protein kinase 2 (P49137 whole entry): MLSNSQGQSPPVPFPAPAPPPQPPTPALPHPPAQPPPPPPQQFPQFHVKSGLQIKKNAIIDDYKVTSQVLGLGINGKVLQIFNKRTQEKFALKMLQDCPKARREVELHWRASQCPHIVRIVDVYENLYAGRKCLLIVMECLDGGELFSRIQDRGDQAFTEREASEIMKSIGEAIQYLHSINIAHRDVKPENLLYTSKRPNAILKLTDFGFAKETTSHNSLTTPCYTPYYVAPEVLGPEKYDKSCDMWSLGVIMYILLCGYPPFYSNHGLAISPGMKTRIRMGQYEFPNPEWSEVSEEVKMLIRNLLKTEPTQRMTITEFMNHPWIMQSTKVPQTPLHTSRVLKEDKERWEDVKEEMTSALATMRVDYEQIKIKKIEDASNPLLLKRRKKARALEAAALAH

Sequence of Ribosomal protein S6 kinase alpha-5 (O75582 whole entry): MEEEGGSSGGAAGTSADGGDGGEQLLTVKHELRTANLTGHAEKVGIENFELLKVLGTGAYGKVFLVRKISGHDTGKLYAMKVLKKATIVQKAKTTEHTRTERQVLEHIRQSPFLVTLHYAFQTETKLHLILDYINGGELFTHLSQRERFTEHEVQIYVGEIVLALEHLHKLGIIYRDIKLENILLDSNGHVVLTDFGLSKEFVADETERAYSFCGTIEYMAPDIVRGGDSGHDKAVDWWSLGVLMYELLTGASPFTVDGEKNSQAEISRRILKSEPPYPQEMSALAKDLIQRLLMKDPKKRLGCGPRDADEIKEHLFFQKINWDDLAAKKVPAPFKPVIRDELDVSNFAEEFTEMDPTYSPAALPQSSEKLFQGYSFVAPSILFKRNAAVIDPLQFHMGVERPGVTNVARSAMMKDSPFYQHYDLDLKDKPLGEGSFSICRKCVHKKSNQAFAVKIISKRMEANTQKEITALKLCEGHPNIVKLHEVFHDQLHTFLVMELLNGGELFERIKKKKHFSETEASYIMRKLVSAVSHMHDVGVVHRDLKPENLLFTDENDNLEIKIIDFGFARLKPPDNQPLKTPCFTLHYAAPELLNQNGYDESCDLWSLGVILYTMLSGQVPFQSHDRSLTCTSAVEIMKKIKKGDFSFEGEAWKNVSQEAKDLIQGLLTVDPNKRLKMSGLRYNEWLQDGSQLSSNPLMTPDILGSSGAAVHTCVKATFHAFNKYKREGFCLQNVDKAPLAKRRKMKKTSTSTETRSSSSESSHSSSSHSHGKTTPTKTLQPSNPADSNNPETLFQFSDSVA

| IC50 [1] | IC50 [2] | SMILES |
| --- | --- | --- |
| 4 µM | 90 µM | CC1(C)CCC[C@]2(C)[C@H]3CC[C@]4(C)O[C@@H](C5=CC(=O)OC5O)C[C@H]4[C@]3(C)CC[C@@H]12 (mixture of isomers) |
| 4 µM | 90 µM | C=C1CC[C@H]2[C@@](C)(CC[C@H]3C(C)(C)CCC[C@]23C)[C@@H]1CC1OC(=O)C=C1CO (stereo partly drawn) |
| 4 µM | 90 µM | C=C1CC[C@H]2[C@@](C)(CC[C@H]3C(C)(C)CCC[C@]23C)[C@@H]1/C=C/C1=CC(=O)OC1O (mixture of isomers) |
| 4 µM | 90 µM | C=C1CC[C@H]2[C@@](C)(CC[C@H]3C(C)(C)CCC[C@]23C)[C@@H]1CC(O)C1=CC(=O)OC1O (mixture of isomers) |
